Measurements from patent publication US20070037841A1, “Inhibitors” (priority 2003, published 2007).

Experiments:
RRE [1] = assay: UV absorption spectrum screening of drugs mixed with RRE; type: binding, HIV-1; conditions: range of 300 nm to 400 nm; absorption of free compound subtracted or compared
Procedure: Referring to UV absorption spectra of RRE in the presence and absence of naphthyridine dimer, screenings of the drugs was carried out. […] In FIG. 7, the solid line indicates the UV absorption spectrum of RRE alone, and the dotted line indicates a UV absorption spectrum when the absorption of naphthyridine dimer free is subtracted from the absorption of the mixture of naphthyridine dimer and RRE. […] In FIG. 8, the solid line indicates the UV absorption spectrum of RRE alone, and the dotted line indicates a UV absorption spectrum when the absorption of the naphthyridine-azaquinolone hybrid free is subtracted from the absorption of the mixture of the naphthyridine-azaquinolone hybrid and RRE. […] In FIG. 9, the solid line indicates the UV absorption spectrum of RRE alone, and the dotted line indicates a UV absorption spectrum when the absorption of the first quinoline-containing compound free is subtracted from the absorption of the mixture of the first quinoline-containing compound and RRE. […] In FIG. 10, the solid line indicates the UV absorption spectrum of RRE alone, and the dotted line indicates a UV absorption spectrum when the absorption of the second quinoline-containing compound free is subtracted from the absorption of the mixture of the second quinoline-containing compound and RRE. As represented by structural formula (8), the second quinoline-containing compound is obtained by replacing one naphthyridine of naphthyridine dimer with a quinoline incapable of hydrogen-binding to a guanine. [drawing 13] In the present example, comparison was made within a range of 300 nm to 400 nm where no absorption of RRE occurs. Naphthyridine is represented by structural formula (9). Azaquinolone is represented by structural formula (10). […] FIGS. 11-13 respectively illustrate the UV absorption spectra of naphthyridine, azaquinolone, or quinolone alone and the mixture thereof with RRE.

RRE [2] = assay: CD spectrum change of RRE (and RRE-neg control) on binding of drugs; parameters: species or system HIV-1; conditions: for binding specificity from CD spectra of RRE versus RRE-neg: RRE-neg has no internal loop (GG and GA mismatch)
Procedure: A change in CD spectrum of RRE due to its binding to each of the drugs was analyzed. In FIG. 14, the solid line indicates a CD spectrum of RRE alone, the dotted line indicates a CD spectrum of a mixture of naphthyridine dimer and RRE, and the dashed line indicates a CD spectrum of a mixture of the naphthyridine-azaquinolone hybrid and RRE. Further, a change in CD spectrum of RRE-neg due to its binding to each of the drugs was analyzed. RRE-neg has no internal loop found in RRE, the internal loop including a GG mismatch and a GA mismatch.

Rev-RRE complex = assay: Fluorescence polarization (anisotropy) inhibition of Rev-RRE complex formation; type: binding, HIV-1; conditions: for IC50: Rev-Fl / RRE, read-out: IC50 value for inhibiting complex formation; for potency of inhibiting Rev-RRE complex formation compared with neomycine B: anisotropy decrease versus inhibitor concentration
Procedure: By using a fluorescence polarization method, it was tested whether Rev-RRE complex formation was inhibited by naphthyridine dimer and the naphthyridine-azaquinolone hybrid.
A greater molecular weight results in a greater polarization degree, i.e., a greater anisotropy.
Naphthyridine dimer, the naphthyridine-azaquinolone hybrid, and neomycine B were used as inhibitors, and anisotropies of each of the inhibitors was measured. […] The horizontal axis indicates the concentration of each of the inhibitors.
An IC50 value of the trinaphthyridine-azaquinolone hybrid used as an inhibitor was obtained by using the fluorescence polarization method. The IC50 value of the trinaphthyridine-azaquinolone hybrid was 0.2 μM. Further, in FIG. 27, the solid line indicates how a CD spectrum of RRE alone was changed, the dotted line indicates how a CD spectrum of RRE was changed when naphthyridine dimer was added to RRE, the dashed line indicates how a CD spectrum of RRE was changed when the trinaphthyridine-azaquinolone hybrid was added to RRE, and […].
Naphthyridine dimer, the naphthyridine-azaquinolone hybrid, the neomycine B, and the trinaphthyridine-azaquinolone hybrid were used as inhibitors, and anisotropies of each of the inhibitors was measured.

RRE [3] = assay: UV titration of naphthyridine dimer with RRE; type: binding, HIV-1
Procedure: UV titration was carried out in order to study how naphthyridine dimer bound to RRE.
It was confirmed that as the concentration of RRE increased, the UV absorbance of naphthyridine dimer decreased and the UV absorbance of a complex increased above an isosbestic point.

RRE-neg = assay: SPR binding of RNA to naphthyridine dimer immobilized on sensor chip; conditions: RRE-neg over immobilized naphthyridine dimer
Procedure: Further, a change in CD spectrum of RRE-neg due to its binding to each of the drugs was analyzed. RRE-neg has no internal loop found in RRE, the internal loop including a GG mismatch and a GA mismatch.
(§1) In a manner shown in FIG. 17, a binding strength of each of RRE, RRE-neg, TAR, and single-stranded RNA (ss RNA) with respect to naphthyridine dimer immobilized on an SPR sensor chip was analyzed. Like RRE, TAR is known as an HIV-RNA target. In FIG. 18, the solid line indicates the binding strength of RRE, the dotted line the binding strength of RRE-neg, the dashed line the binding strength of TAR, and the double-dashed line the binding strength of ssRNA.

[4] = test system: single-stranded RNA (ss RNA); assay: as above; conditions: ssRNA over immobilized naphthyridine dimer
Procedure: as §1

RRE [5] = assay: as above; parameters: species or system HIV-1; conditions: RRE over immobilized naphthyridine dimer
Procedure: as §1

TAR = assay: as above; parameters: species or system HIV; conditions: TAR RNA over immobilized naphthyridine dimer
Procedure: as §1

Structure (SMILES): Cc1ccc2ccc(NC(=O)CCNCCC(=O)NCc3ccc4ccc(=O)[nH]c4n3)nc2n1 [naphthyridine-azaquinolone hybrid]
- change in UV absorption spectrum on mixing with RRE (RRE [1]): significant changes
- change in CD spectrum of RRE when compound added (RRE [2]): change at 300 nm or above
- binding specificity from CD spectra of RRE versus RRE-neg (RRE [2]): specifically binds to the internal loop of RRE
- IC50 (Rev-RRE complex; fluorescence polarization): 2 µM
- potency of inhibiting Rev-RRE complex formation compared with neomycine B (Rev-RRE complex): higher potency

Structure (SMILES): Cc1ccc2ccc(NC(=O)CCNCCC(=O)Nc3ccc4ccc(C)nc4n3)nc2n1 [naphthyridine dimer]
- binding mode to RRE from UV titration (RRE [3]; RRE of various concentrations, absorption at 332 nm): intercalated into a duplex of RRE
- number of naphthyridine dimers forming the complex with RRE (RRE [3]; UV titration): two
- binding strength (SPR signal) (RRE-neg): almost no responses
- change in UV absorption spectrum on mixing with RRE (RRE [1]): significant changes
- binding strength (SPR signal) [4]: almost no responses
- change in CD spectrum of RRE when compound added (RRE [2]): significant change in the whole spectrum
- binding specificity from CD spectra of RRE versus RRE-neg (RRE [2]): specifically binds to the internal loop of RRE
- binding strength (SPR signal) (RRE [5]): strong signal
- IC50 (Rev-RRE complex; fluorescence polarization): 1.2 µM
- potency of inhibiting Rev-RRE complex formation compared with neomycine B (Rev-RRE complex): higher potency
- binding strength (SPR signal) (TAR): did not bind at all

Structure (SMILES): NCC1OC(OC2C(CO)OC(OC3C(O)C(N)CC(N)C3OC3OC(CN)C(O)C(O)C3N)C2O)C(N)C(O)C1O (stereo not shown) [neomycine B, reference compound]
- IC50 (Rev-RRE complex; fluorescence polarization): 4 µM

Structure (SMILES): NCCC(=O)Nc1ccc2ccccc2n1
- change in UV absorption spectrum on mixing with RRE (RRE [1]): almost no changes

Structure (SMILES): O=C(CCNCCC(=O)Nc1ccc2ccccc2n1)NCc1ccc2ccc(=O)[nH]c2n1 [second quinoline-containing compound]
- change in UV absorption spectrum on mixing with RRE (RRE [1]): no remarkable changes

Structure (SMILES): Cc1ccc2ccc(NC(=O)CCNCCC(=O)Nc3ccc4ccccc4n3)nc2n1 [first quinoline-containing compound]
- change in UV absorption spectrum on mixing with RRE (RRE [1]): no remarkable changes

Structure (SMILES): Cc1ccc2ccc(NC(=O)CCN(CCCCCN(CCC(=O)Nc3ccc4ccc(C)nc4n3)CCC(=O)Nc3ccc4ccc(C)nc4n3)CCC(=O)NCc3ccc4ccc(=O)[nH]c4n3)nc2n1 [trinaphthyridine-azaquinolone hybrid]
- IC50 (Rev-RRE complex; fluorescence polarization): 0.2 µM
- activity relative to neomycine B (Rev-RRE complex; fluorescence polarization): approximately twenty
